Results published in publication PMC3707396 (Bioorganic & medicinal chemistry letters, 2013).
pIC50: −log10 of the molar value.

Columns and labels:
[1] = test system: PC-3 cells; assay: WST-1 cytotoxicity in transfected PC-3 cells; assay type: cell-based; conditions: Homo sapiens, PC-3, read-out: % inh WST-1 (100 μM)
[2] = Passive permeability, PAMPA Explorer Kit; assay type: in vitro ADME; conditions: for Log Peff: log of effective permeability, mean of n = 3; for Permeability bin (high, medium or low): ranges not printed (Ref 17)
[3] = Kinetic solubility; assay type: physicochemical; conditions: for Solubility bin (high, medium or low): kinetic solubility, ranges not printed (in reference)
[4] = test system: PC-3 cells; conditions: cited from earlier work
[5] = test system: mice; assay: In vivo tolerability study
[6] = test system: SK-Mel-147 cells; assay: WST-1 cytotoxicity in SK-Mel-147 cells; assay type: cell-based
[7] = test system: MKL1; conditions: preliminary studies; cited from earlier work
[8] = molecular target: Rho-pathway selective serum response element-luciferase reporter (SRE.L); conditions: read-out: IC50 (SRE.L); cited from earlier work

Log Peff [2] | Permeability bin (high, medium or low) [2] | Solubility bin (high, medium or low) [3] | Structure (SMILES) | inhibition at 100 µM [1] | other results
 |  |  | N#Cc1cccc(C(=O)N2CCCC(C(=O)Nc3ccc(Cl)cc3)C2)c1 (stereo not drawn) [Compound 8q] | 0% | 
 |  |  | COC(=O)c1cccc(C(=O)N2CCCC(C(=O)Nc3ccc(Cl)cc3)C2)c1 (stereo not drawn) [Compound 8l] | 0% | 
 |  |  | O=C(Nc1ccc(Cl)cc1)C1CCCN(C(=O)c2cccc(-c3cnco3)c2)C1 (stereo not drawn) [Compound 8j] | 0% | 
−10 ± 0.00 cm/s | LOW | LOW | O=C(Nc1ccc(Cl)cc1)C1CCCN(C(=O)c2cccc(-c3cccs3)c2)C1 (stereo not drawn) [Compound 8u] |  | 
 |  |  | O=C(Nc1ccc(Cl)cc1)C1CCCN(C(=O)c2cccc([N+](=O)[O-])c2)C1 (stereo not drawn) [Compound 8s] | 0% | 
−5.1 ± 0.40 cm/s | MOD-LOW | LOW | O=C(Nc1cccc(Oc2ccccc2)c1)C1CCCN(C(=O)c2cc(C(F)(F)F)cc(C(F)(F)F)c2)C1 (stereo not drawn) [Compound 12a] |  | 
 |  |  | COCc1cccc(C(=O)N2CCCC(C(=O)Nc3ccc(Cl)cc3)C2)c1 (stereo not drawn) [Compound 8o] | 0% | 
 |  |  | C=Cc1cccc(C(=O)N2CCCC(C(=O)Nc3ccc(Cl)cc3)C2)c1 (stereo not drawn) [Compound 8f] | 0% | 
 |  |  | CCN(CC)S(=O)(=O)c1cccc(C(=O)N2CCCC(C(=O)Nc3ccc(Cl)cc3)C2)c1 (stereo not drawn) [Compound 8k] | 0% | 
 |  |  | CSc1cccc(C(=O)N2CCCC(C(=O)Nc3ccc(Cl)cc3)C2)c1 (stereo not drawn) [Compound 8i] | 0% | 
−10 ± 0.00 cm/s | LOW | LOW | O=C(Nc1ccc(Cl)cc1)C1CCCN(C(=O)c2cc(C(F)(F)F)cc(C(F)(F)F)c2)C1 (stereo not drawn) [Compound 2, reference compound] |  | Inhibition of invasion into Matrigel by cultured PC-3 cells [4]: can inhibit invasion; solubility [3]: < 10 µg/mL
 |  |  | Cc1nc(-c2cccc(C(=O)N3CCCC(C(=O)Nc4ccc(Cl)cc4)C3)c2)no1 (stereo not drawn) [Compound 8m] | 0% | 
 |  |  | O=C(c1ccccc1)c1cccc(C(=O)N2CCCC(C(=O)Nc3ccc(Cl)cc3)C2)c1 (stereo not drawn) [Compound 8b] | 0% | 
−4.7 ± 0.05 cm/s | MOD | LOW | O=C(Nc1cccc(Cc2ccccc2)c1)C1CCCN(C(=O)c2cc(C(F)(F)F)cc(C(F)(F)F)c2)C1 (stereo not drawn) [Compound 12b] |  | 
 |  |  | CC(C)(C)CC(=O)Nc1cccc(C(=O)N2CCCC(C(=O)Nc3ccc(Cl)cc3)C2)c1 (stereo not drawn) [Compound 8e] | 0% | 
 |  |  | COc1cccc(C(=O)N2CCCC(C(=O)Nc3ccc(Cl)cc3)C2)c1 (stereo not drawn) [Compound 8n] | 0% | 
−10 ± 0.00 cm/s | LOW | LOW | O=C(CCNC(=O)c1cc(C(F)(F)F)cc(C(F)(F)F)c1)Nc1ccc(Cl)cc1 [Compound 19, reference compound] |  | pIC50 [8]: 4.42
 |  |  | CC(ONC(=O)c1cc(C(F)(F)F)cc(C(F)(F)F)c1)C(=O)Nc1ccc(Cl)cc1 (stereo not drawn) [Compound 1, reference compound] |  | In vivo tolerability (toxicity) ([5]; repeated dosing at 7.5 mg/kg intraperitoneally (IP)): deaths observed; Inhibition of invasion of PC-3 prostate cancer cells ([4]; Matrigel model of metastasis): inhibits invasion
 |  |  | Cc1cccc(C(=O)N2CCCC(C(=O)Nc3ccc(Cl)cc3)C2)c1 (stereo not drawn) [Compound 8h] | 0% | 

Structure (SMILES) | Log Peff [2] | Permeability bin (high, medium or low) [2] | Solubility bin (high, medium or low) [3] | inhibition at 100 µM [1] | other results
O=C(Nc1ccc(Cl)cc1)C1CCCN(C(=O)c2cccc(-c3ccco3)c2)C1 (stereo not drawn) [Compound 8a] | −8.3 ± 2.3 cm/s | LOW | LOW | 0% | Body weight over the course of the study ([5]; 10, 20, 50 and 100 mg/kg/day IP, 5 days): Weight was maintained; Abnormality observed at dissection ([5]; 10, 20, 50 and 100 mg/kg/day IP, 5 days, sacrifice on 8th day): slight increase in liver weight; Tolerability in mice ([5]; 5 days, up to 100 mg/kg/day IP, normal mice): well tolerated; WST-1 cytotoxicity [6]: no WST-1 cytotoxicity; Effect on MKL1 nuclear localization [7]: blocks MKL1 nuclear localization
